Test results taken from patent publication US12459922B2 (Gilead Sciences, Inc., priority 2022, dated 2025).

Key:
PARP7 = target: T1, PARP7 (Homo sapiens, UniProt Q7Z3E1); assay: Probe Displacement Assay for PARP7 (MSD electrochemiluminescent, biotinylated probe RBNO11147); conditions: displacement of biotinylated probe RBNO11147 from PARP7 NAD+-binding site; read-out: MSD ProbeDisp PARP7 IC50
T1 sequence (Q7Z3E1 1-657): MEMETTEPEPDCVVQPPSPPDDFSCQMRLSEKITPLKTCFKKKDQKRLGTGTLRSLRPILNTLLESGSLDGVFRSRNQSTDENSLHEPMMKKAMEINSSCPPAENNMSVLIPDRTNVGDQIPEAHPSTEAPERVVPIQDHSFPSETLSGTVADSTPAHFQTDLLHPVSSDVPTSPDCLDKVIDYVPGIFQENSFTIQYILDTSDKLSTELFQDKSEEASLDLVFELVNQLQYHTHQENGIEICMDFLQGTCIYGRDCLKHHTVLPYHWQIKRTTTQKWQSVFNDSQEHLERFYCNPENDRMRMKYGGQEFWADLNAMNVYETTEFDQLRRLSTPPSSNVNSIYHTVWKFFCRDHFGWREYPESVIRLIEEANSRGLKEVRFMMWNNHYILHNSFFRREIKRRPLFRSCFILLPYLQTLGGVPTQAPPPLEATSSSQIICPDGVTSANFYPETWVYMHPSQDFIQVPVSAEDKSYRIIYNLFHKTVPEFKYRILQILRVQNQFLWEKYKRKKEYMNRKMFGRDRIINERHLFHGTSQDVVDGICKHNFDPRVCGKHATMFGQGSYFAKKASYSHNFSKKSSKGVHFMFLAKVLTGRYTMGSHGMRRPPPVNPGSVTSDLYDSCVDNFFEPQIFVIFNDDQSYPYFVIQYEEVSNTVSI

[1] = system: endogenous cellular STAT1 (phosphorylated at Tyr701) in NCI-H1373 cells; assay: Phospho-STAT1 (Tyr701) LANCE Ultra TR-FRET Detection Assay; type: cell-based; conditions: Homo sapiens, NCI-H1373, 48 h, phospho-STAT1 (Tyr701) induction, read-out: NH1373 pSTAT1 EC50

C[C@@H](CCCn1ccc2cc(-c3cccc4c3OCC4)c(F)cc2c1=O)Nc1cn[nH]c(=O)c1C(F)(F)F [Example 26, (S)-6-(2,3-dihydrobenzofuran-7-yl)-7-fluoro-2-(4-((6-oxo-5-(trifluoromethyl)-1,6-dihydropyridazin-4-yl)amino)pentyl)isoquinolin-1(2H)-one]
IC50 (PARP7): 0.4 nM
EC50 [1]: 10000 nM

C[C@@H](CCCn1ccc2cc(-c3cccc4c3OCCO4)c(F)cc2c1=O)Nc1cn[nH]c(=O)c1C(F)(F)F [Example 27, (S)-6-(2,3-dihydrobenzo[b][1,4]dioxin-5-yl)-7-fluoro-2-(4-((6-oxo-5-(trifluoromethyl)-1,6-dihydropyridazin-4-yl)amino)pentyl)isoquinolin-1(2H)-one]
IC50 (PARP7): 25 nM
EC50 [1]: 10000 nM

C[C@@H](CCCn1ccc2cc(-c3ccc4c(c3)OCCO4)c(F)cc2c1=O)Nc1cn[nH]c(=O)c1C(F)(F)F [Example 28, (S)-6-(2,3-dihydrobenzo[b][1,4]dioxin-6-yl)-7-fluoro-2-(4-((6-oxo-5-(trifluoromethyl)-1,6-dihydropyridazin-4-yl)amino)pentyl)isoquinolin-1(2H)-one]
IC50 (PARP7): > 33 nM
EC50 [1]: 2180 nM

C[C@@H](CCCn1cnc2cc(-c3ncc(C(F)(F)F)cn3)c(F)cc2c1=O)Nc1cn[nH]c(=O)c1C(F)(F)F [Example 29, (S)-6-fluoro-3-(4-((6-oxo-5-(trifluoromethyl)-1,6-dihydropyridazin-4-yl)amino)pentyl)-7-(5-(trifluoromethyl)pyrimidin-2-yl)quinazolin-4(3H)-one]
IC50 (PARP7): 1.6 nM
EC50 [1]: 31.6 nM

C[C@@H](CCCn1c(=O)[nH]c2cc(-c3ncc(C(F)(F)F)cn3)c(F)cc2c1=O)Nc1cn[nH]c(=O)c1C(F)(F)F [Example 30, 6-fluoro-3-[(4S)-4-[[6-oxo-5-(trifluoromethyl)-1H-pyridazin-4-yl]amino]pentyl]-7-[5-(trifluoromethyl)pyrimidin-2-yl]-1H-quinazoline-2,4-dione]
IC50 (PARP7): 0.3 nM
EC50 [1]: 18.6 nM

C[C@@H](CCCn1ccc2cc(-c3ccccn3)c(F)cc2c1=O)Nc1cn[nH]c(=O)c1C(F)(F)F [Example 31, 7-fluoro-2-[(4S)-4-[[6-oxo-5-(trifluoromethyl)-1H-pyridazin-4-yl]amino]pentyl]-6-(2-pyridyl)isoquinolin-1-one]
IC50 (PARP7): 0.2 nM
EC50 [1]: 2180 nM

C[C@@H](CCCn1ccc2cc(-c3ccc(OC(F)(F)F)cn3)c(F)cc2c1=O)Nc1cn[nH]c(=O)c1C(F)(F)F [Example 32, 7-fluoro-2-[(4S)-4-[[6-oxo-5-(trifluoromethyl)-1H-pyridazin-4-yl]amino]pentyl]-6-[5-(trifluoromethoxy)-2-pyridyl]isoquinolin-1-one]
IC50 (PARP7): 2.6 nM
EC50 [1]: 187 nM

C[C@@H](CCCn1ccc2cc(-c3ccc(C(F)F)cn3)c(F)cc2c1=O)Nc1cn[nH]c(=O)c1C(F)(F)F [Example 33, 6-[5-(difluoromethyl)-2-pyridyl]-7-fluoro-2-[(4S)-4-[[6-oxo-5-(trifluoromethyl)-1H-pyridazin-4-yl]amino]pentyl]isoquinolin-1-one]
IC50 (PARP7): 0.5 nM
EC50 [1]: 168 nM

C[C@@H](CCCn1ccc2cc(-c3ncc(F)cn3)c(F)cc2c1=O)Nc1cn[nH]c(=O)c1C(F)(F)F [Example 34, 7-fluoro-6-(5-fluoropyrimidin-2-yl)-2-[(4S)-4-[[6-oxo-5-(trifluoromethyl)-1H-pyridazin-4-yl]amino]pentyl]isoquinolin-1-one]
IC50 (PARP7): 0.6 nM
EC50 [1]: 429 nM

C[C@@H](CCCn1ccc2cc(-c3ccc(F)cn3)c(F)cc2c1=O)Nc1cn[nH]c(=O)c1C(F)(F)F [Example 35, 7-fluoro-6-(5-fluoro-2-pyridyl)-2-[(4S)-4-[[6-oxo-5-(trifluoromethyl)-1H-pyridazin-4-yl]amino]pentyl]isoquinolin-1-one]
IC50 (PARP7): 0.5 nM
EC50 [1]: 436 nM

O=c1[nH]ncc(N[C@H](CCCn2ccc3cc(-c4ncc(C(F)(F)F)cn4)c(F)cc3c2=O)C2CC2)c1C(F)(F)F [Example 36, 2-[(4R)-4-cyclopropyl-4-[[6-oxo-5-(trifluoromethyl)-1H-pyridazin-4-yl]amino]butyl]-7-fluoro-6-[5-(trifluoromethyl)pyrimidin-2-yl]isoquinolin-1-one]
IC50 (PARP7): 0.7 nM
EC50 [1]: 74.1 nM

CC[C@@H](CCCn1ccc2cc(-c3ncc(C(F)(F)F)cn3)c(F)cc2c1=O)Nc1cn[nH]c(=O)c1C(F)(F)F [Example 37, 7-fluoro-2-[(4S)-4-[[6-oxo-5-(trifluoromethyl)-1H-pyridazin-4-yl]amino]hexyl]-6-[5-(trifluoromethyl)pyrimidin-2-yl]isoquinolin-1-one]
IC50 (PARP7): 0.4 nM
EC50 [1]: 42.7 nM

C[C@@H](CCCn1ccc2cc(-c3ccc(C4(C#N)CC4)cn3)cc(F)c2c1=O)Nc1cn[nH]c(=O)c1C(F)(F)F [Example 38, 1-[6-[8-fluoro-1-oxo-2-[(4S)-4-[[6-oxo-5-(trifluoromethyl)-1H-pyridazin-4-yl]amino]pentyl]-6-isoquinolyl]-3-pyridyl]cyclopropanecarbonitrile]
IC50 (PARP7): 0.3 nM
EC50 [1]: 579 nM

C[C@@H](CCCn1ccc2cc(-c3ccc(C4(C(F)(F)F)CC4)cn3)cc(F)c2c1=O)Nc1cn[nH]c(=O)c1C(F)(F)F [Example 39, 8-fluoro-2-[(4S)-4-[[6-oxo-5-(trifluoromethyl)-1H-pyridazin-4-yl]amino]pentyl]-6-[5-[1-(trifluoromethyl)cyclopropyl]-2-pyridyl]isoquinolin-1-one]
IC50 (PARP7): 2.5 nM
EC50 [1]: 890 nM

C[C@@H](CCCn1ccc2cc(-c3ccc(S(C)(=N)=O)cn3)cc(F)c2c1=O)Nc1cn[nH]c(=O)c1C(F)(F)F (stereo partly drawn) [Example 40, 8-fluoro-6-[5-(methylsulfonimidoyl)-2-pyridyl]-2-[(4S)-4-[[6-oxo-5-(trifluoromethyl)-1H-pyridazin-4-yl]amino]pentyl]isoquinolin-1-one]
IC50 (PARP7): 2.7 nM
EC50 [1]: 10000 nM

C[C@@H](CCCn1ccc2cc(-c3ccc(CC(F)(F)F)cn3)cc(F)c2c1=O)Nc1cn[nH]c(=O)c1C(F)(F)F [Example 41, 8-fluoro-2-[(4S)-4-[[6-oxo-5-(trifluoromethyl)-1H-pyridazin-4-yl]amino]pentyl]-6-[5-(2,2,2-trifluoroethyl)-2-pyridyl]isoquinolin-1-one]
IC50 (PARP7): 3.7 nM
EC50 [1]: 144 nM

C[C@@H](CCCn1ccc2cc(-c3ncc(OC(F)F)cn3)c(F)cc2c1=O)Nc1cn[nH]c(=O)c1C(F)(F)F [Example 42, 6-[5-(difluoromethoxy)pyrimidin-2-yl]-7-fluoro-2-[(4S)-4-[[6-oxo-5-(trifluoromethyl)-1H-pyridazin-4-yl]amino]pentyl]isoquinolin-1-one]
IC50 (PARP7): 1 nM
EC50 [1]: 133 nM

C[C@@H](CCCn1ccc2cc(-c3ccc(OC(F)F)cn3)c(F)cc2c1=O)Nc1cn[nH]c(=O)c1C(F)(F)F [Example 43, 6-[5-(difluoromethoxy)-2-pyridyl]-7-fluoro-2-[(4S)-4-[[6-oxo-5-(trifluoromethyl)-1H-pyridazin-4-yl]amino]pentyl]isoquinolin-1-one]
IC50 (PARP7): 0.76 nM
EC50 [1]: 311 nM

C[C@@H](CCCn1ccc2cc(-c3ncc(C(F)(F)F)cn3)c(Cl)cc2c1=O)Nc1cn[nH]c(=O)c1C(F)(F)F [Example 44, 7-chloro-2-[(4S)-4-[[6-oxo-5-(trifluoromethyl)-1H-pyridazin-4-yl]amino]pentyl]-6-[5-(trifluoromethyl)pyrimidin-2-yl]isoquinolin-1-one]
IC50 (PARP7): 0.67 nM
EC50 [1]: 10000 nM

Cc1cc2cc(-c3ncc(C(F)(F)F)cn3)ccc2c(=O)n1CCC[C@H](C)Nc1cn[nH]c(=O)c1C(F)(F)F [Example 45, 3-methyl-2-[(4S)-4-[[6-oxo-5-(trifluoromethyl)-1H-pyridazin-4-yl]amino]pentyl]-6-[5-(trifluoromethyl)pyrimidin-2-yl]isoquinolin-1-one]
IC50 (PARP7): 1.19 nM
EC50 [1]: 617 nM

Cc1cn(CCC[C@H](C)Nc2cn[nH]c(=O)c2C(F)(F)F)c(=O)c2ccc(-c3ncc(C(F)(F)F)cn3)cc12 [Example 46, 4-methyl-2-[(4S)-4-[[6-oxo-5-(trifluoromethyl)-1H-pyridazin-4-yl]amino]pentyl]-6-[5-(trifluoromethyl)pyrimidin-2-yl]isoquinolin-1-one]
IC50 (PARP7): 0.824 nM
EC50 [1]: 432 nM

O=c1[nH]ncc(N2C[C@H]3C[C@H]3[C@H]2CCCn2ccc3nc(-c4ccc(C(F)(F)F)cn4)ccc3c2=O)c1C(F)(F)F [Example 47, 6-[3-[(1R,2R,5S)-3-[6-oxo-5-(trifluoromethyl)-1H-pyridazin-4-yl]-3-azabicyclo[3.1.0]hexan-2-yl]propyl]-2-[5-(trifluoromethyl)-2-pyridyl]-1,6-naphthyridin-5-one]
IC50 (PARP7): 1.27 nM
EC50 [1]: 10000 nM

O=c1[nH]ncc(N2C[C@H]3C[C@H]3[C@H]2CCCn2ccc3cc(-c4ccc(C(F)(F)F)cn4)cc(F)c3c2=O)c1C(F)(F)F [Example 48, 8-fluoro-2-[3-[(1R,2R,5S)-3-[6-oxo-5-(trifluoromethyl)-1H-pyridazin-4-yl]-3-azabicyclo[3.1.0]hexan-2-yl]propyl]-6-[5-(trifluoromethyl)-2-pyridyl]isoquinolin-1-one]
IC50 (PARP7): 0.897 nM
EC50 [1]: 338 nM
